Data published in patent publication US8318947B2, “Comestible compositions comprising high potency savory flavorants, and processes for producing them” (Senomyx, Inc., priority 2006, dated 2012).

Key:
[1] = test system: human subjects, savory taste; test: Human taste test of low sodium tomato juice; assay type: in vivo; settings: 3 μM cpd; 400 mg Na/8 oz tomato juice
Method: Human taste tests were conducted in order to evaluate the ability of the compounds of the invention to enhance the savory flavor of low sodium tomato juice (which naturally comprises some monosodium glutamate).
The final tomato juice samples for taste testing were prepared so as to comprise 90% (by volume) pre-made low sodium tomato juice stock (pH 4.2, 80˜100 mg Na/8 oz, 16 mM of naturally occurring MSG), 5% (by volume) of stock solutions formulated to produce selected final levels of sodium of final juice, and 5% (by volume) of a stock solution of the compound of the invention. Selected oxalamide compounds of the invention were dissolved in LSB (low sodium phosphate buffer), to provide a stock solution at 20 times the desired final concentration in the final tomato juice. The desired final sodium concentration of the final tomato juice was most experiments 73.6 mM (400 mg sodium in 8 oz. of juice), therefore a stock solution of NaCl was made at 1.48 M NaCl. The pH for the stock solutions was adjusted to 4.2 using a 1 M citric acid solution, and the stock solutions were sonicated to ensure the additive compounds were completely dissolved. […]
Scores were averaged across panelists and sessions, and evaluated using a 2-way ANOVA (factors: panelists and samples) and Duncan's multiple comparison test (alpha=0.05) to determine significant differences in intensity ratings.

trained tasters = test: Pizza sauce triangle difference taste test; assay type: in vivo, human
Method: For effective formulation in pizza sauce, a water soluble savory flavor concentrate formulation comprising 0.1% of Compound 1 was developed by dissolution in propylene glycol.
18221.7600 g of propylene glycol (supplied by Gold Coast, Inc.) was weighed out into a 2000 ml stainless steel cylinder, 18.2400 grams of Compound 1 was slowly added to 700.00 g of the propylene glycol using a Silverson Mill (model: L4RT) having a square hole high shear screen and set at 2000 rpm, until all of the dry 5807 (Compound 1) was added to the propylene glycol, the mill rpms was increased to 5,000-6,000 rpm's for 8-10 minutes. The remaining 17,521.76 g of propylene glycol was placed into a 10-gallon steam jacketed kettle equipped with a Lightnin Mixer utilizing a three blade impeller and heated to 50° C. (120° F.), then the milled solution was slowly added to the heated and agitated propylene glycol in the kettle. It took over 30 minutes of heating and mixing to completely solubilize Compound 1, then, the solution was allowed to cool to 80° F., then a Unispense Filler was used to fill sterilized 2 oz. glass containers with 62 grams of the liquid savory flavor, for storage. The water activity of the solution was 0.953@24.7° C., the refractive index was 1.4328, and the final concentration of this savory flavor was 0.10% of Compound 1.
Two pizza sauce samples, one comprising 0.4% of MSG and one containing no MSG, but comprising 1.1 ppm of Compound 1 were prepared using the ingredients listed in Tables 391 and 39-2 below, using the following procedure.
Salt, citric acid, sugar, the spices and herbs, including the MSG, were pre-blended as solids at 80-100 rpms in a 6 quart bowl and mixed using a KitchenAide blender for 5 minutes using a whip attachment. Water was placed in a clean kettle and stirred with a Lightnin mixer at 120-200 rpms to create a vortex. The savory flavor form of Compound 1, 0.10%, was slowly added to the water and mixed for five minutes. The vinegar and solid spice mixture was slowly added with the mixer still blending at 80-100 rpms until the dry seasonings were dissolved, approximately 5 minutes. The tomato paste was added and the slurry was mixed an additional 10. The resulting pizza sauce was transferred to a stainless steel six quart pot on a gas burner and was heated to pasteurizing temperature (175-190° F.) and held for a minimum of two minutes, cooled down to ambient (70+/−2° F.) temperature.
Ten trained tasters were trained to identify relative intensities of the following taste attributes: salty, savory/meaty, umami, brothiness, bitter, linger and off flavors. A triangle difference test determines if there is a sensory difference between two products. Three blinded, coded and randomized samples are presented to the panelist. Two samples are the same and one is different. To answer the test correctly, the panelist must taste all three samples and correctly pick out the sample they feel is different from the other two.
The samples were blind coded and presented in randomized order. The panelists each performed a total of two triangle tests, with 3 samples per test
a. Test 1: 2 samples with 1.1 ppm Compound 1; one sample with MSG.
b. Test 2: 2 samples with MSG; one sample with 1.1 ppm Compound 1.

[2] = Test 1: 2 samples with 1.1 ppm Compound 1, one sample with MSG, 10 panelists
[3] = Test 2: 2 samples with MSG, one sample with 1.1 ppm Compound 1, 10 panelists

Row | SMILES | Enhancement of the savory taste of 16 mM glutamate (naturally existing) in low sodium tomato juice [1] | Distinguishing pizza sauce with compound (no MSG) from pizza sauce with full loading of MSG (trained tasters; 1.1 ppm Compound 1 vs 0.4% MSG) | # Correct (trained tasters; [2]) | # Incorrect (trained tasters; [2]) | # Correct (trained tasters; [3]) | # Incorrect (trained tasters; [3]) | # Correct (trained tasters; Totals, n = 20) | # Incorrect (trained tasters; Totals, n = 20)
1 | COc1ccc(CNC(=O)C(=O)NCCc2ccccn2)c(OC)c1 [Example 24, N-(2,4-Dimethoxy-benzyl)-N′-(2-pyridin-2-yl-ethyl)-oxalamide] | by 1.4 to 1.5-fold | – | – | – | – | – | – | –
2 | CCCC(CCC)NC(=O)c1ccc2c(c1)OCO2 [Example 1, N-(heptan-4-yl)benzo[d][1,3]dioxole-5-carboxamide] | – | could not distinguish between the sauces | 3 | 7 | 6 | 4 | 9 | 11
